Reference: patent US20250311727A1, “SUBSTITUTED 2-AMINOAZINES AND SALTS THEREOF, AND USE THEREOF AS HERBICIDAL ACTIVE SUBSTANCES” (BAYER AKTIENGESELLSCHAFT, priority 2022, published 2025)

Assays:
Format in all cases: in vivo
[1] = system: Lolium rigidum; assay: Pre-emergence herbicide efficacy at 320 g/ha, LOLRI; conditions: scored visually after about 3 weeks vs untreated controls, 100% = plants have died
From the text: (§1) Unwanted plants/weeds: • ABUTH: Abutilon theophrasti • ALOMY: Alopecurus myosuroides • AMARE: Amaranthus retroflexus • DIGSA: Digitaria sanguinalis • ECHCG: Echinochloa crus-galli • KCHSC: Kochia scoparia • LOLRI: Lolium rigidum • MATIN: Matricaria inodora • POAAN: Poa annua • POLCO: Polygonum convolvulus • SETVI: Setaria viridis • STEME: Stellaria media • VERPE: Veronica persica • VIOTR: Viola tricolor A. Post-Emergence Herbicidal Efficacy at 320 g/ha
(§2) Seeds of mono- and dicotyledonous weed plants were placed in plastic pots in sandy loam soil (doubly sown with one species each of mono- or dicotyledonous weed plants per pot) and covered with soil. The compounds of the invention, formulated in the form of wettable powders (WP) or as emulsion concentrates (EC), were then applied to the surface of the covering soil as aqueous suspension or emulsion with addition of 0.5% additive at a water application rate of 600 litres per hectare (converted). After the treatment, the pots were placed in a greenhouse and kept under good growth conditions for the test plants. After about 3 weeks, the efficacy of the preparations was scored visually in comparison with untreated controls as percentages.
(§3) For example, 100% activity=the plants have died, 0% activity=like control plants.
(§4) Tables C1 to C12 below show the effects of selected compounds of the general formula (I) according to Table 1 on various harmful plants and at an application rate corresponding to 320 g/ha, which were obtained by the trial procedure specified above.

[2] = system: Amaranthus retroflexus; assay: Post-emergence herbicidal efficacy at 320 g/ha, AMARE; conditions: rated visually after about 3 weeks vs untreated controls, 100% = plants have died
Method in brief: (§5)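 Visual % activity vs untreated controls, ~3 wk after spraying; 100% = plants dead, 0% = like control. Greenhouse pot plants in sandy loam, treated at one-leaf stage (2–3 wk post-sowing). WP/EC in water + 0.5% additive, 600 L/ha spray volume.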

[3] = system: Poa annua; assay: Pre-emergence herbicide efficacy at 320 g/ha, POAAN; conditions: scored visually after about 3 weeks vs untreated controls, 100% = plants have died
From the text: as §1, §2, §3, §4

[4] = system: Amaranthus retroflexus; assay: Pre-emergence herbicide efficacy at 320 g/ha, AMARE; conditions: scored visually after about 3 weeks vs untreated controls, 100% = plants have died
Method in brief: (§6)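 Pre-emergence soil-surface spray of WP or EC formulation in water at 600 L/ha with 0.5% additive, over seeds covered in sandy loam. Scoring visual, ~3 weeks, % of untreated.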

[5] = system: Kochia scoparia; assay: Pre-emergence herbicide efficacy at 320 g/ha, KCHSC; conditions: scored visually after about 3 weeks vs untreated controls, 100% = plants have died
Method in brief: as §6

[6] = system: Digitaria sanguinalis; assay: Pre-emergence herbicide efficacy at 320 g/ha, DIGSA; conditions: scored visually after about 3 weeks vs untreated controls, 100% = plants have died
Method in brief: as §6

[7] = system: Veronica persica; assay: Pre-emergence herbicide efficacy at 320 g/ha, VERPE; conditions: scored visually after about 3 weeks vs untreated controls, 100% = plants have died
Method in brief: as §6

[8] = system: Setaria viridis; assay: Pre-emergence herbicide efficacy at 320 g/ha, SETVI; conditions: scored visually after about 3 weeks vs untreated controls, 100% = plants have died
Method in brief: as §6

[9] = system: Kochia scoparia; assay: Post-emergence herbicidal efficacy at 320 g/ha, KCHSC; conditions: rated visually after about 3 weeks vs untreated controls, 100% = plants have died
Method in brief: as §5

[10] = system: Echinochloa crus-galli; assay: Post-emergence herbicidal efficacy at 320 g/ha, ECHCG; conditions: rated visually after about 3 weeks vs untreated controls, 100% = plants have died
From the text: as §1
Seeds of mono- and dicotyledonous weed plants were placed in plastic pots in sandy loam soil (doubly sown with in each case one species of mono- or dicotyledonous weed plants per pot), covered with soil and cultivated in a greenhouse under controlled growth conditions. 2 to 3 weeks after sowing, the test plants were treated at the one-leaf stage. The compounds of the invention, formulated in the form of wettable powders (WP) or as emulsion concentrates (EC), were applied to the green parts of the plants as aqueous suspension or emulsion with addition of 0.5% additive at a water application rate equivalent to 600 litres per hectare. After the test plants had been kept in the greenhouse under optimum growth conditions for about 3 weeks, the activity of the preparations was rated visually in comparison to untreated controls.
as §3
Tables A1 to A10 below show the effects of selected compounds of the general formula (I) according to Table 1 on various harmful plants and at an application rate corresponding to 320 g/ha, which were obtained by the trial procedure specified above.

[11] = system: Stellaria media; assay: Pre-emergence herbicide efficacy at 320 g/ha, STEME; conditions: scored visually after about 3 weeks vs untreated controls, 100% = plants have died
Method in brief: as §6

Fc1cnc(Nc2cccc(F)c2-n2cc(C(F)(F)F)cn2)nc1 [Example 1-48]
Pre-emergence efficacy at 320 g/ha against LOLRI in % [1]: 100%
Post-emergence efficacy at 320 g/ha against AMARE in % [2]: 100%
Pre-emergence efficacy at 320 g/ha against POAAN in % [3]: 100%
Pre-emergence efficacy at 320 g/ha against AMARE in % [4]: 100%
Pre-emergence efficacy at 320 g/ha against KCHSC in % [5]: 100%
Pre-emergence efficacy at 320 g/ha against DIGSA in % [6]: 100%
Pre-emergence efficacy at 320 g/ha against VERPE in % [7]: 100%
Pre-emergence efficacy at 320 g/ha against SETVI in % [8]: 100%
Post-emergence efficacy at 320 g/ha against KCHSC in % [9]: 90%
Post-emergence efficacy at 320 g/ha against ECHCG in % [10]: 90%
Pre-emergence efficacy at 320 g/ha against STEME in % [11]: 100%
